The nature of the assay: growth inhibition of yeast carrying parasite Hsp90, dose response, anti-malarial Hsp90 inhibitor project, ATP luminescence, 48 h, cherry-picked samples (AID 540268).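 On activity change, negative = inhibition: 0% = neutral control wells and -100% = positive control wells.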 Particulars: yeast expressing the parasite Hsp90, ATP luminescence; for activity change, negative = inhibition: at 26 µM (top of the series).

Calls of active or inactive are those of the source. How the calls were made is not given here. Bounds are passed on as bounds.

The term AC50 denotes the midpoint of the concentration-response curve, whichever way the signal moves.

For the compound `CN(CC(=O)Nc1cccc(F)c1)C(=O)c1cn(-c2ccccc2)nc1-c1ccc(Cl)cc1`, the AC50 was 7.8 µM.
On the same count and under the same terms, with `COc1cc(C=NO)nc(-c2ccccn2)c1` the figure was 2.32 µM.
On the same count and under the same terms, the same measure for `Cc1ccc(/C=[N+](\[O-])c2ccc(N(C)C)cc2)c2nsnc12`: 8.1 µM.
Take `O=C(/C(=C/c1cccc(Cl)c1)c1nc2ccccc2[nH]1)c1ccccc1`: the activity change, negative = inhibition is 49.8% (inactive).
As to `O=C1c2cc(Cl)ccc2-c2c(O)cc(Cl)cc21`, the AC50 was 1.4 µM.
As to `CC1=NOC(=O)/C1=C\c1ccc(-c2ccc(Br)cc2)o1`, the AC50 was 4.51 µM.
Still for that read-out and setting: the same measure for `COc1ccc(O)c(-c2cc(-c3cccc(Br)c3)n[nH]2)c1`: 7.23 µM; for `C[C@@H]1C[C@@H]([C@H](O)CC2CC(=O)NC(=O)C2)C(=O)[C@@H](C)C1`: below 0.195 µM; for `CC(C)(C)C1C/C(=C/c2ccccn2)C(=O)/C(=C/c2ccccn2)C1` (stereo not drawn): 8.29 µM.
On the same count and under the same terms, with `O=C(Nc1nc(-c2ccccn2)cs1)C1COc2ccccc2O1` (stereo not drawn) the figure was 8.85 µM.
Regarding `CC(C)(C)c1cc(C(c2cccnc2)N2CCN(CCO)CC2)cc(C(C)(C)C)c1O` (stereo not drawn), the AC50 was 25 µM.
The same measure, in the same setting: with `CCCCCC(=O)N(O)C1CC(=O)N(c2ccccc2)C1=O` (stereo not drawn) the figure was 1.13 µM.
Turning to `COc1ccc2c(c1)[C@H]1[C@H](CO2)[C@H](c2ccccc2)[C@]2(C)C(=O)Nc3ccc(Br)cc3C(=O)N12`, the AC50 is 1.74 µM.
The same measure, in the same setting: the same measure for `CCN1CCN(C(c2ccc(C(F)(F)F)cc2)c2ccc3cccnc3c2O)CC1` (stereo not drawn): 1.54 µM.
Take `N#Cc1c2ccc([N+](=O)[O-])cc2[n+]([O-])n1-c1ccccc1`: the AC50 was 2.1 µM.
On the same count and under the same terms, the same measure for `Cc1ccc(NC(=O)c2cc(N3C(=O)C=CC3=O)ccc2N2CCOCC2)cc1`: 0.605 µM; for `Oc1c(C(Nc2cccc(C(F)(F)F)c2)c2ccncc2)ccc2cccnc12` (stereo not drawn): 5.15 µM; for `Cc1c(OCC(=O)C(C)(C)C)ccc2c(-c3ccccc3)cc(=O)oc12`: 8.35 µM.
Turning to `O=[N+]([O-])c1ccc(S(=O)Cc2ccccc2)c([N+](=O)[O-])c1` (stereo not drawn), the AC50 is 2.55 µM.
On to `Cc1sc2nc(C3CC3)nc(SCC(=O)NCc3ccco3)c2c1C`, for which the AC50 was 7.33 µM.
For the compound `S=C1SCN(Cc2cccnc2)CN1Cc1cccnc1`, the AC50 is 4.07 µM.
Consider `COc1ccc([N+](=O)[O-])c(S(=O)(=O)c2ccc(Cl)cc2)n1`, for which the AC50 was 1.27 µM.
Still for that read-out and setting: the same measure for `O=C(/C=C/c1ccccc1[N+](=O)[O-])c1ccccc1Br`: 3.2 µM; for `Cc1ccc(N=N/C(=C\O)C(=O)c2ccc(Cl)cc2)cc1`: 8.29 µM.
For `C/C(CC(=O)Nc1cc(C)ccn1)=N\NC(=O)c1cccc(C)c1O`, the activity change, negative = inhibition is -51.7% (inactive).
Take `Cc1ccc(OCC(=O)NNC(=S)NC(=O)C(C)(C)C)c(Br)c1`: the half-maximal activity concentration (AC50) was 5.05 µM.
On the same count and under the same terms, the same measure for `Cc1ccc(-n2ncc3c2CCCC3NC(=O)c2ccccc2N2CCOCC2)cc1C` (stereo not drawn): 0.984 µM.
The same measure, in the same setting: the same measure for `Cc1cccnc1Nc1nc(-c2ccccn2)cs1`: 4.32 µM; for `CCCCCCCC/C=C\CCCCCCCC(=O)NCCO`: 9.25 µM; for `O=C(OCc1ccccc1)c1ccc(NCc2cc(O)ccc2O)cc1`: 5.09 µM.
The same measure, in the same setting: with `Cc1cccc(N=Nc2ccc(O)c3ncccc23)c1` the figure was 2.25 µM.
Regarding `C=CCn1c(O)c(C2=c3ccccc3=NC2=O)c2ccccc21`, the AC50 was 0.844 µM.
The same measure, in the same setting: with `CCCCCCC(=O)N(O)C1CC(=O)N(c2ccc(F)cc2)C1=O` (stereo not drawn) the figure was 1.32 µM.
Same read-out and setting: the same measure for `Cc1ccc(C(=O)ONC(=O)c2ccc(Cl)cc2)cc1[N+](=O)[O-]`: 0.387 µM.
For `OC(Cn1cncn1)(c1ccc(F)cc1)c1ccc(Cl)cc1` (stereo not drawn), the concentration at half-maximal activity (AC50) was below 0.195 µM.
For `Cn1cncc1C#Cc1c(-c2ccsc2)sc2ccccc12`, the AC50 is 7.55 µM.
Same read-out and setting: the same measure for `Cc1ccccc1Oc1cc(-n2ncc(Cl)c(Cl)c2=O)ncn1`: 1.11 µM; for `O=C(/C=C/c1ccccc1)NC(=S)NNC(=O)c1cnccn1`: 3.69 µM; for `Oc1c(CN2CCCCC2)cc(Br)c2cccnc12`: 2.95 µM.
On the same count and under the same terms, the same measure for `O=C(C#Cc1ccccc1)c1ccc([N+](=O)[O-])cc1`: 2.1 µM; for `O=C(/C=C/c1cccc(C(F)(F)F)c1)Nc1cccc(C(F)(F)F)c1`: 8.08 µM.
On the same count and under the same terms, the same measure for `O=C(Oc1c(Cl)cc(Cl)c2cccnc12)c1cccs1`: 4.26 µM; for `O=[S@]1Oc2ccccc2-c2ccccc21`: 1.67 µM; for `O=C(N/N=C/c1cc(Cl)c(O)c(Cl)c1)c1cc2c(ccc3ccccc32)o1`: 3.54 µM.
Regarding `CCOC(=O)/C(=C\c1cccnc1)C(=O)c1cc(C(C)=O)c(Nc2ccccc2)s1`, the AC50 was 3.93 µM.
Still for that read-out and setting: with `O=C(N/N=C/c1sc2ccccc2c1O)c1cccc2ccccc12` the figure was 17 µM; with `Cc1cc(Cl)ccc1C(=O)C1CCCN(C(=O)c2cncs2)C1` (stereo not drawn), 4.62 µM.
In the case of `CN(C)/C=C/C(=O)c1ccc2noc(-c3cccc(F)c3)c2c1`, the AC50 is 13.5 µM.
For `CCc1sc(C(=O)Nc2nc(-c3ccccn3)cs2)cc1C`, the AC50 was 8.12 µM.
On the same count and under the same terms, with `O=C1/C(=C\c2ccc(Cl)c(Cl)c2)CN(C(=O)CCN2CCOCC2)C/C1=C/c1ccc(Cl)c(Cl)c1` the figure was 3.5 µM.
Same read-out and setting: the same measure for `Cc1cccc(C)c1N=Nc1c(C)cc(O)cc1C`: 8.29 µM; for `CC(CCc1ccccc1)NC(=O)c1ccc(Br)cc1` (stereo not drawn): 4.71 µM.
Same read-out and setting: the same measure for `CCCC(=O)NC1=C(Cl)C(=O)c2ccccc2C1=O`: below 0.195 µM.
Consider `CCCCC(=O)NC(c1ccccc1)c1ccc2cccnc2c1O` (stereo not drawn), for which the AC50 was 23.6 µM.
On to `O=C(/C=C/c1ccc(F)cc1)NC(=S)NNC(=O)c1cnccn1`, for which the AC50 is 2.71 µM.
On to `CCCCCCC(=O)N(O)C1CC(=O)N(c2ccc(C)cc2)C1=O` (stereo not drawn), for which the half-maximal activity concentration (AC50) was 0.829 µM.
With `CC1(C(=O)c2ccccc2)C2c3c(ccc4ccccc34)OC(=O)C21C(=O)N1CCOCC1` (stereo not drawn), the AC50 was 4.16 µM.
Same read-out and setting: the same measure for `CCCCCCCCCCOC(=O)Cn1c(COc2cccc(C)c2)[n+](C)c2ccccc21`: 15.5 µM; for `CC1=C(C(=O)OCc2ccccc2)C(/C=C/c2ccccc2)NC(=S)N1` (stereo not drawn): below 0.195 µM; for `Cc1onc(-c2ccccc2)c1C(=O)NC(=S)NNC(=O)c1ccccc1O`: 2.24 µM.
Still for that read-out and setting: the same measure for `O=C(NNC1=C(C(=O)C(F)(F)F)CCC1)c1ccc(Cl)cc1`: 1.34 µM.
On the same count and under the same terms, with `O=C(Nc1ccc(F)cc1)c1nc(S(=O)(=O)Cc2ccccc2)ncc1Cl` the figure was 5.68 µM.
Turning to `Clc1ccc(COC(Cn2ccnc2)c2ccc(Cl)cc2Cl)c(Cl)c1` (stereo not drawn), the AC50 is below 0.195 µM.
On the same count and under the same terms, with `Cc1ccc(C)c(/C=C/C(=O)c2ccccc(=O)c2O)c1` the figure was 2.19 µM; with `Cc1[nH]c2ccc(C(=O)N3CCN(c4cccc(Cl)c4)CC3)cc2c1C`, 8.89 µM.
`CCc1ccc(-c2cc(C(=O)N3N=C(C(F)F)CC3(O)C(F)F)c3ccccc3n2)cc1` (stereo not drawn): the AC50 was 3.24 µM.
Still for that read-out and setting: with `CCCCCCCCCCCCCCCCn1cc[n+](CC(C)=O)c1` the figure was 4.39 µM; with `CCOC(=O)C1=C(N)N2C(=O)C(C)SC2=C(C(=O)OC)C1c1ccccc1OC` (stereo not drawn), 0.706 µM; with `Cc1ccc(N=Nc2ccc(O)cc2)c(Br)c1`, 8.33 µM.
For `CCOc1ccccc1-c1c2cc(O)c(=O)cc-2oc2cc(O)c(O)cc12`, the AC50 was 4.21 µM.
For the compound `Cc1ccc(NC(=S)N/N=C/c2ccc([N+](=O)[O-])s2)cc1`, the concentration at half-maximal activity (AC50) was 4.92 µM.
`On1ccccc1=S`: the AC50 is below 0.195 µM.
Take `CCCCCCCCC/C(=N\O)c1ccccn1`: the AC50 is 3.65 µM.

The values are drawn from PubChem BioAssay AID540268 (Broad Institute, 2011).
